From ChEMBL document CHEMBL3751803, “Discovery of an in Vivo Tool to Establish Proof-of-Concept for MAP4K4-Based Antidiabetic Treatment” (ACS Med Chem Lett, 2015)
≈ marks a conversion by molar mass, not a printed value.

Experiments:
[1] = target: T1, Mitogen-activated protein kinase kinase kinase kinase 4 (Homo sapiens, UniProt O95819); experiment: Inhibition of recombinant human MAP4K4 catalytic domain in presence of 10 uM ATP (Km) by FRET assay
[2] = target: T1, Mitogen-activated protein kinase kinase kinase kinase 4; experiment: Inhibition of recombinant human MAP4K4 catalytic domain in presence of 1 mM ATP by FRET assay
[3] = target: T1, Mitogen-activated protein kinase kinase kinase kinase 4; experiment: Inhibition of human MAP4K4 transfected in 293 MSR cells assessed as inhibition of phosphorylation of traf2 at ser/thr residue by ELISA; type: cell-based
[4] = Passive permeability in MDCK2 cell with low efflux; type: ADME, cell-based, Canis lupus familiaris, MDCK-II; settings: dog, MDCK
CYP3A4 [5] = target: T2, CYP3A4 (Homo sapiens, UniProt P08684); experiment: Inhibition of CYP3A4 (unknown origin) at 3 uM; type: ADME
Cytochrome P450 1A2 = target: T3, Cytochrome P450 1A2 (Homo sapiens, UniProt P05177); experiment: Inhibition of CYP1A2 (unknown origin); type: ADME
T3 sequence (P05177 whole entry): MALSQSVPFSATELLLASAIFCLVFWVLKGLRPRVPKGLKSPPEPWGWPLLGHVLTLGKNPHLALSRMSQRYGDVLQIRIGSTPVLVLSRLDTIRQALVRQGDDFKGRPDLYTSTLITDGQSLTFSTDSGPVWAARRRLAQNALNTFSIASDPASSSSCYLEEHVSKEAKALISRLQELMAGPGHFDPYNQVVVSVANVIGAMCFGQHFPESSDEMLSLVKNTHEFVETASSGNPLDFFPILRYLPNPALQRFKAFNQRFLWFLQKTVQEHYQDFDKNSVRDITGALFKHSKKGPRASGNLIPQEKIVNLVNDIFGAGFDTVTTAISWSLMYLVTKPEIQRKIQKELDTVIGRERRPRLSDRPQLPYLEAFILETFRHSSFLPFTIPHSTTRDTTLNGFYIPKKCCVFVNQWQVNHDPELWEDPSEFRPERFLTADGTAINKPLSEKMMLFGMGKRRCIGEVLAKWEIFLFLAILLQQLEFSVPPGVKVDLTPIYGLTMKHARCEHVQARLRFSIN

CYP2C9 = CYP2C9 (Homo sapiens, UniProt P11712); experiment: Inhibition of CYP2C9 (unknown origin) at 3 uM; type: ADME
[6] = target: Voltage-gated inwardly rectifying potassium channel KCNH2 (Homo sapiens, UniProt Q12809); experiment: Inhibition of human ERG transfected in HEK293 cells; type: cell-based
Liver microsome = experiment: Unbound intrinsic clearance in human liver microsomes; type: ADME
CYP2C8 = target: T4, CYP2C8 (Homo sapiens, UniProt P10632); experiment: Inhibition of CYP2C8 (unknown origin) at 3 uM; type: ADME
T4 sequence (P10632 whole entry): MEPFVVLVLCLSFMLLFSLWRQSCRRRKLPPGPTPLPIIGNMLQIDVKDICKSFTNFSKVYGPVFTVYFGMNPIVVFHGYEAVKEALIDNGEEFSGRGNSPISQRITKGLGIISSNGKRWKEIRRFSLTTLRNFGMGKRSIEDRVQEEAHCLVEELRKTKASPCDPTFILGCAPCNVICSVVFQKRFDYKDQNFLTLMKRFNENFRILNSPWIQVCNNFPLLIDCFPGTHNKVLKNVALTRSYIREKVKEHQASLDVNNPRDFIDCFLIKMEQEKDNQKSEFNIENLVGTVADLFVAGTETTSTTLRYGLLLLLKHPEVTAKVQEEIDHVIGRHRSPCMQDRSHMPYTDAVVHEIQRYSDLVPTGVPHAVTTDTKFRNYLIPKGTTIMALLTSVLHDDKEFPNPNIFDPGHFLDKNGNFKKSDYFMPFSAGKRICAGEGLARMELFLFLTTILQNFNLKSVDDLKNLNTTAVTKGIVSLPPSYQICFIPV

[7] = Solubility of compound at pH 6.5; type: physicochemical; settings: buffer
Mus musculus [8] = experiment: Decrease in blood glucose level in ob/ob mouse at 10 mg/kg, po bid for 4 weeks; type: functional; settings: 672 h
CYP2D6 = CYP2D6 (Homo sapiens, UniProt P10635); experiment: Inhibition of CYP2D6 (unknown origin) at 3 uM; type: ADME
Plasma = experiment: Plasma concentration in C57/Bl6 mouse at 15 mg/kg, po; type: ADME, organism-based, C57/BI6; settings: in vivo
CYP3A4 [9] = target: T2, CYP3A4; experiment: Time dependent inhibition of CYP3A4 (unknown origin) using midazolam as substrate at 60 uM; type: ADME; settings: probe midazolam
Salmonella typhimurium = experiment: Mutagenicity in Salmonella typhimurium by Ames test; type: toxicity, organism-based; settings: salmonella enterica subsp. enterica serovar typhimurium
CYP3A4 [10] = target: T2, CYP3A4; experiment: Time dependent inhibition of CYP3A4 (unknown origin) using midazolam as substrate at 30 uM; type: ADME; settings: probe midazolam
[11] = Fraction unbound in mouse plasma at 10 mg/kg, po; type: ADME, organism-based
Epithelial cell = experiment: Cytotoxicity against human liver epithelial cells
[12] = target: TRAF2 and NCK-interacting protein kinase (Homo sapiens, UniProt Q9UKE5); experiment: Inhibition of TNIK (unknown origin) in presence of ATP (Km)
[13] = Solubility of compound at pH 1.2; type: physicochemical; settings: buffer
Mus musculus [14] = experiment: Inhibition of LPS-induced TNF-alpha level in C57/Bl6 mouse blood at 15 mg/kg, po administered 30 mins prior to LPS challenge measured after […]; type: functional; settings: C57/BI6, Blood
Misshapen-like kinase 1 = Misshapen-like kinase 1 (Homo sapiens, UniProt Q8N4C8); experiment: Inhibition of MINK (unknown origin) in presence of ATP (Km)
[15] = Lipophilicity, log D of the compound; type: physicochemical; settings: octanol/water
CYP1A2 = target: T5, CYP1A2 (Homo sapiens, UniProt P05177); experiment: Inhibition of CYP1A2 (unknown origin) at 3 uM; type: ADME
T5 sequence (P05177 whole entry): T3 sequence (P05177 whole entry)

T2 sequence (P08684 whole entry): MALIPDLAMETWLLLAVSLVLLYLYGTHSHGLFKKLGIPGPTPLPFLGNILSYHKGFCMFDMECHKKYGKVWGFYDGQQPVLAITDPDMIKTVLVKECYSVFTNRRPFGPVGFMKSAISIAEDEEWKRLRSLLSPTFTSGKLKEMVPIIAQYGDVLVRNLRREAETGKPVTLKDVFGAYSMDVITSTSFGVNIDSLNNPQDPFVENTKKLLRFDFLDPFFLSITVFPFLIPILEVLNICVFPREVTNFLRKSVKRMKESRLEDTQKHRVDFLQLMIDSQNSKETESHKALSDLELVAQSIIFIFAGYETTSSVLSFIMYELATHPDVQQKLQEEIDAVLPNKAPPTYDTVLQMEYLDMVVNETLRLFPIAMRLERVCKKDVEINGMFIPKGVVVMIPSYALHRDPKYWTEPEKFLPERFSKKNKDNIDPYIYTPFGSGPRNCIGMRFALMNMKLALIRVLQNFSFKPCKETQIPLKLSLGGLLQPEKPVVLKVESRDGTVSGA
T1 sequence (O95819 whole entry, the tested form may be a part): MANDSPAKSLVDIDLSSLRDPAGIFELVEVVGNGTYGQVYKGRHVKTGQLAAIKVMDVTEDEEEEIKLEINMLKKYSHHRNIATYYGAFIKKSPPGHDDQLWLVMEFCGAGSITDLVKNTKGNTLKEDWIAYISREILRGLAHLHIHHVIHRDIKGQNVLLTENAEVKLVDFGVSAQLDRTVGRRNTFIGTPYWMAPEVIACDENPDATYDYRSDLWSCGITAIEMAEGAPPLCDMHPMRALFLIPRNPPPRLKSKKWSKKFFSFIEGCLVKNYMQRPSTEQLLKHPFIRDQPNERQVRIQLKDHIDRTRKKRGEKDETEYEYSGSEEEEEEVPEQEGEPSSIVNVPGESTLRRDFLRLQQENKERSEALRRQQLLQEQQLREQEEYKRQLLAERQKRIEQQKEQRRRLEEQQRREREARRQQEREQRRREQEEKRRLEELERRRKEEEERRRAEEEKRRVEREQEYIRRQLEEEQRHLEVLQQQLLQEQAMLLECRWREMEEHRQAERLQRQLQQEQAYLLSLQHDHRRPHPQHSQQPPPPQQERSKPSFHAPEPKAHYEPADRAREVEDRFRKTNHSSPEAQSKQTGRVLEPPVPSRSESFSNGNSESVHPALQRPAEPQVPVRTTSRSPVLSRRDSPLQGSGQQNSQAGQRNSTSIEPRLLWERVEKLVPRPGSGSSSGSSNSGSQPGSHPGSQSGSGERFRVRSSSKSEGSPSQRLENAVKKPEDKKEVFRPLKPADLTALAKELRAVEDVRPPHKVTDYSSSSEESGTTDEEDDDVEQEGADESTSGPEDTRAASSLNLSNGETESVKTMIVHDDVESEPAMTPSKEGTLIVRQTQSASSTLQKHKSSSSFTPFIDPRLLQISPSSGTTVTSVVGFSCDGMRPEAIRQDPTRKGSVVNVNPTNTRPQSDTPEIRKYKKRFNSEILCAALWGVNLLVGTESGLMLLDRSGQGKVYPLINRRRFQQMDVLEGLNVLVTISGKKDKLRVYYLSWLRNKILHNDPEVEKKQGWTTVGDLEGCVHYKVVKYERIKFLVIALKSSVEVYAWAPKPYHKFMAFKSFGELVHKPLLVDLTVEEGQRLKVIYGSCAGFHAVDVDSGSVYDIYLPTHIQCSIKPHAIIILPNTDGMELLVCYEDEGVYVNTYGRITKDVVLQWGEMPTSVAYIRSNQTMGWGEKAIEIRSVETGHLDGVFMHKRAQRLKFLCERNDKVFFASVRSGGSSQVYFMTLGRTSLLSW
CYP2D6, sequence (P10635 whole entry): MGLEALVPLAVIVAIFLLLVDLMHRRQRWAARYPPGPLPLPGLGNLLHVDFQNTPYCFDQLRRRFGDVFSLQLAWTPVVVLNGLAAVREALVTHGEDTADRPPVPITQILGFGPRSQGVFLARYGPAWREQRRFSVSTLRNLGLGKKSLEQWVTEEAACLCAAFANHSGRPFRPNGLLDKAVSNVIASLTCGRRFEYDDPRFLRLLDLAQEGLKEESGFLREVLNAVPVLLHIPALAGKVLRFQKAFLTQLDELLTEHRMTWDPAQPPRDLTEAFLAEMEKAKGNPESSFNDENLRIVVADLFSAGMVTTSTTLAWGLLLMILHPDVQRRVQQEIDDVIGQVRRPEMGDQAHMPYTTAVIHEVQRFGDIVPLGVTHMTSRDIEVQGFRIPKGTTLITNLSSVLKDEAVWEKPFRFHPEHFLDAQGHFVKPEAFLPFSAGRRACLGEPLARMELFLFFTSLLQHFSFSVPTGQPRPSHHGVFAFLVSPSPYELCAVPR
CYP2C9, sequence (P11712 whole entry): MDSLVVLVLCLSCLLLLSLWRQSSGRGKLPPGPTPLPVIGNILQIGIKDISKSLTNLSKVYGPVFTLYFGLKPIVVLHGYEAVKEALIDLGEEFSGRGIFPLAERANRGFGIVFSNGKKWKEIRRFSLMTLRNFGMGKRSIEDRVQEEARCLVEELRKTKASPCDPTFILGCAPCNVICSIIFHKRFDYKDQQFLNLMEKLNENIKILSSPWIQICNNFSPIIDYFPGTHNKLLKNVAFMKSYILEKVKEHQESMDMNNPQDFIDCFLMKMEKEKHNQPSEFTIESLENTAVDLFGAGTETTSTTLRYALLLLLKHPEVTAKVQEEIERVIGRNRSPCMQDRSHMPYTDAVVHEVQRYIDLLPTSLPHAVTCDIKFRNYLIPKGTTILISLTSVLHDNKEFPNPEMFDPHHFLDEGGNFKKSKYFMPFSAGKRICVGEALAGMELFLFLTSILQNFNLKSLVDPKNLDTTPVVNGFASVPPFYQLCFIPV
Voltage-gated inwardly rectifying potassium channel KCNH2, sequence (Q12809 whole entry): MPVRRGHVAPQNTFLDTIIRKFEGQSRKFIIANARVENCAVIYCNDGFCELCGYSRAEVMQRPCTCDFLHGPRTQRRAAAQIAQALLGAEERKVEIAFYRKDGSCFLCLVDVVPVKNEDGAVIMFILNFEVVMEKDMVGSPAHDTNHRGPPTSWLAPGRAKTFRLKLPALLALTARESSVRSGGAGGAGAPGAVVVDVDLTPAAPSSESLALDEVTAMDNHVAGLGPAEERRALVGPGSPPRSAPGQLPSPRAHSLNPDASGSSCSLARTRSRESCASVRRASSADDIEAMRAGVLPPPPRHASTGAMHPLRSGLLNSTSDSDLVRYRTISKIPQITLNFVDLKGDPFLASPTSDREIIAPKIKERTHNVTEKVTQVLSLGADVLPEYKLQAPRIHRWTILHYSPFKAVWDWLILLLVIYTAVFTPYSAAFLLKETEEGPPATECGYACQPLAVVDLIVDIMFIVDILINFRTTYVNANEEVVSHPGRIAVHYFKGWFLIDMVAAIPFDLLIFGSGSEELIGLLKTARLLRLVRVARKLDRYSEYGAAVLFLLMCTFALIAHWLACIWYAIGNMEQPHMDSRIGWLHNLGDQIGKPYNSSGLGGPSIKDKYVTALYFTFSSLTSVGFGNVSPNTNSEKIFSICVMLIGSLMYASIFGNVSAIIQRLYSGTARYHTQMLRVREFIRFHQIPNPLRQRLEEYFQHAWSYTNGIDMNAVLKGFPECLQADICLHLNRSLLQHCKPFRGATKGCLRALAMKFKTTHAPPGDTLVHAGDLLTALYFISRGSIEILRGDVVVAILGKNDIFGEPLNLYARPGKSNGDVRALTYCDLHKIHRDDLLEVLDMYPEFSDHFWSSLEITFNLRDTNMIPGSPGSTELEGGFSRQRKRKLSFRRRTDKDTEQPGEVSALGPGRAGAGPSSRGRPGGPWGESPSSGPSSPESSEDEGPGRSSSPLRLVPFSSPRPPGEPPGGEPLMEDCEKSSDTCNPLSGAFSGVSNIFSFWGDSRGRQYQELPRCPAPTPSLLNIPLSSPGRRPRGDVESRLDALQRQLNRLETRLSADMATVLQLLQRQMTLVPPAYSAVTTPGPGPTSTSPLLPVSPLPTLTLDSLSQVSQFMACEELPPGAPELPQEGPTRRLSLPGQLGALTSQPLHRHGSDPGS

`NC(=O)c1ccc(-n2cc(-c3ccc(Cl)cc3)cn2)cc1` gave an IC50 [1] of 0.248 µM, an IC50 [2] of over 10 µM and an IC50 [3] of over 30 µM.

Work on `Cn1c(-c2ccc(Cl)cc2)cnc1-c1ccc(C(N)=O)cc1` yielded a Papp [4] of 156 nm/s.

Molecule `COc1ccc(-c2cncc(-c3ccc(C(N)=O)cc3)c2)cc1` has a Papp [4] of 87 nm/s.

Molecule `CS(=O)(=O)c1ccc(-c2cc(-c3ccc(O)cc3)cnc2N)cc1` has a Papp [4] of 172 nm/s.

In the case of `NC(=O)c1ccc(-c2cncc(-c3ccc(OC4CC4)cc3)c2)cc1`, the Papp [4] is reported as 35 nm/s.

In the case of `Nc1ccc(-c2cnc(N)c(-c3ccc(Cl)cc3)c2)cn1`, the inhibition at 3 µM (CYP3A4 [5]) is reported as under 15%, the IC50 [1] is reported as 0.0037 µM and the IC50 (Cytochrome P450 1A2) is reported as 3 µM. It also gave an inhibition at 3 µM (CYP2C9) of under 15%, an IC50 [6] of 1.8 µM and a CL free (Liver microsome) of 5.34 L/h/kg. The inhibition at 3 µM (CYP2C8) was under 15%, the solubility [7] was 5.8 mg/mL (≈ 19.5 mM) and the inhibition in vivo at 10 mg/kg (Mus musculus [8]) was 44%. For the same molecule, the inhibition at 3 µM (CYP2D6) was under 15%, the Cp (Plasma) was 0.439 µg/mL and the Papp [4] was 71 nm/s. The inhibition at 60 µM (CYP3A4 [9]) was 61%, the Activity (Salmonella typhimurium) was “Toxic” and the inhibition at 30 µM (CYP3A4 [10]) was 54%. The fraction unbound [11] was 0.038, the IC50 (Epithelial cell) was over 119 µM and the IC50 [3] was 0.16 µM. For the same molecule, the IC50 [12] was 0.015 µM, the solubility [13] was 13 mg/mL (≈ 43.8 mM) and the inhibition in vivo at 15 mg/kg (Mus musculus [14]) was over 90%. It also gave an IC50 (Misshapen-like kinase 1) of 0.008 µM.

In the case of `NC(=O)c1ccc(-c2cn(-c3ccc(Cl)cc3)cn2)cc1`, the Papp [4] is reported as 29 nm/s.

In the case of `Nc1ncc(-c2cc[nH]c(=O)c2)cc1-c1ccc(Cl)cc1`, the Papp [4] is reported as 157 nm/s.

Work on `NC(=O)c1ccc(-c2cc(-c3ccc(Cl)cc3)ccn2)cc1` yielded a Papp [4] of 44 nm/s.

Work on `CS(=O)(=O)c1ccc(-c2cc(-c3ccc(C(N)=O)cc3)cnc2N)cc1` yielded a Papp [4] of 67 nm/s.

For `NC(=O)c1ccc(-c2cncc(-c3ccc(Cl)cc3)c2)cc1`, the Papp [4] was 87 nm/s.

With `NC(=O)c1ccc(-c2ncc(-c3ccc(Cl)cc3)o2)cc1` the IC50 [1] was 0.094 µM, the logD [15] was 3.6 and the IC50 [2] was over 10 µM. The IC50 [3] was 6.3 µM.

Molecule `Nc1ncc(-c2cnc(N)c(-c3ccc(Cl)cc3)c2)cn1` has an inhibition at 3 µM (CYP3A4 [5]) of under 15%, an inhibition at 3 µM (CYP2C9) of under 15% and an IC50 [6] of over 10 µM. The CL free (Liver microsome) was 0.78 L/h/kg, the inhibition at 3 µM (CYP2C8) was under 15% and the solubility [7] was 0.002 mg/mL (≈ 0.00672 mM). For the same molecule, the inhibition at 3 µM (CYP2D6) was under 15%, the inhibition at 60 µM (CYP3A4 [9]) was 24% and the Activity (Salmonella typhimurium) was “Non-toxic”. For the same molecule, the inhibition at 30 µM (CYP3A4 [10]) was 8%, the IC50 (Epithelial cell) was over 300 µM and the solubility ([13]; read-out: solubility) was 3.96 mg/mL (≈ 13.3 mM). The inhibition at 3 µM (CYP1A2) was under 15%.
